According to the NIST ThermoML archive (doi:10.1021/je049918m):
Several values for one entry are separate records, joined by “and”; a condition that tells them apart may be missing. Identical values can stand only once.

Conditions: Liquid, Falling or rolling sphere viscometry

[2H]O[2H] [water-d2]
Conditions	viscosity
255.65 K, 212200 kPa	3.963 mPa·s
255.65 K, 220100 kPa	3.973 mPa·s
255.65 K, 239200 kPa	4.012 mPa·s
255.65 K, 249500 kPa	4.036 mPa·s
258.15 K, 196900 kPa	3.566 mPa·s
258.15 K, 215300 kPa	3.588 mPa·s
258.15 K, 242900 kPa	3.629 mPa·s
258.15 K, 271000 kPa	3.697 mPa·s
258.15 K, 298500 kPa	3.777 mPa·s
258.15 K, 315600 kPa	3.835 mPa·s
263.15 K, 153200 kPa	2.939 mPa·s
263.15 K, 160800 kPa	2.937 mPa·s
263.15 K, 185300 kPa	2.944 mPa·s
263.15 K, 200800 kPa	2.953 mPa·s
263.15 K, 249500 kPa	3.02 mPa·s
263.15 K, 299600 kPa	3.125 mPa·s
263.15 K, 347100 kPa	3.26 mPa·s
263.15 K, 383400 kPa	3.381 mPa·s
268.15 K, 109700 kPa	2.494 mPa·s
268.15 K, 125300 kPa	2.475 mPa·s
268.15 K, 150900 kPa	2.468 mPa·s
268.15 K, 174700 kPa	2.464 mPa·s
268.15 K, 201200 kPa	2.481 mPa·s
268.15 K, 251400 kPa	2.535 mPa·s
268.15 K, 289200 kPa	2.601 mPa·s
268.15 K, 325500 kPa	2.675 mPa·s
268.15 K, 390600 kPa	2.85 mPa·s
273.15 K, 52000 kPa	2.196 mPa·s
273.15 K, 69600 kPa	2.159 mPa·s
273.15 K, 99700 kPa	2.116 mPa·s
273.15 K, 130400 kPa	2.098 mPa·s
273.15 K, 150600 kPa	2.096 mPa·s
273.15 K, 177300 kPa	2.103 mPa·s
273.15 K, 204300 kPa	2.119 mPa·s
273.15 K, 223000 kPa	2.135 mPa·s
273.15 K, 252900 kPa	2.165 mPa·s
273.15 K, 279500 kPa	2.203 mPa·s
273.15 K, 302900 kPa	2.234 mPa·s
273.15 K, 350500 kPa	2.318 mPa·s
273.15 K, 357500 kPa	2.336 mPa·s
273.15 K, 395200 kPa	2.435 mPa·s
278.15 K, 100 kPa	1.987 mPa·s
278.15 K, 3100 kPa	1.977 mPa·s
278.15 K, 5600 kPa	1.968 mPa·s
278.15 K, 8100 kPa	1.961 mPa·s
278.15 K, 10800 kPa	1.952 mPa·s
278.15 K, 25900 kPa	1.911 mPa·s
278.15 K, 50800 kPa	1.862 mPa·s
278.15 K, 75600 kPa	1.829 mPa·s
278.15 K, 100700 kPa	1.811 mPa·s
278.15 K, 125600 kPa	1.803 mPa·s
278.15 K, 150500 kPa	1.802 mPa·s
278.15 K, 174500 kPa	1.809 mPa·s
278.15 K, 199100 kPa	1.822 mPa·s
278.15 K, 224100 kPa	1.841 mPa·s
278.15 K, 249600 kPa	1.865 mPa·s
278.15 K, 299700 kPa	1.922 mPa·s
278.15 K, 349100 kPa	1.993 mPa·s
283.15 K, 100 kPa	1.677 mPa·s
283.15 K, 200 kPa	1.676 mPa·s and 1.677 mPa·s
283.15 K, 3000 kPa	1.67 mPa·s
283.15 K, 5600 kPa	1.665 mPa·s
283.15 K, 8100 kPa	1.66 mPa·s
283.15 K, 10800 kPa	1.655 mPa·s
283.15 K, 25800 kPa	1.629 mPa·s
283.15 K, 50800 kPa	1.597 mPa·s and 1.598 mPa·s
283.15 K, 100800 kPa	1.569 mPa·s and 1.567 mPa·s
283.15 K, 125500 kPa	1.566 mPa·s
283.15 K, 150600 kPa	1.57 mPa·s
283.15 K, 150800 kPa	1.569 mPa·s
283.15 K, 175500 kPa	1.579 mPa·s
283.15 K, 199400 kPa	1.592 mPa·s
283.15 K, 199700 kPa	1.592 mPa·s
283.15 K, 224300 kPa	1.608 mPa·s
283.15 K, 249600 kPa	1.629 mPa·s
283.15 K, 249700 kPa	1.63 mPa·s
283.15 K, 299200 kPa	1.678 mPa·s
283.15 K, 299600 kPa	1.678 mPa·s
283.15 K, 348600 kPa	1.737 mPa·s
283.15 K, 348700 kPa	1.737 mPa·s
298.15 K, 100 kPa	1.097 mPa·s [middle of 6 runs]
298.15 K, 200 kPa	1.095 mPa·s
298.15 K, 5600 kPa	1.092 mPa·s
298.15 K, 8000 kPa	1.09 mPa·s
298.15 K, 10300 kPa	1.091 mPa·s
298.15 K, 10700 kPa	1.09 mPa·s
298.15 K, 25700 kPa	1.084 mPa·s
298.15 K, 30700 kPa	1.084 mPa·s
298.15 K, 50700 kPa	1.079 mPa·s and 1.081 mPa·s
298.15 K, 60700 kPa	1.079 mPa·s
298.15 K, 75600 kPa	1.08 mPa·s
298.15 K, 90600 kPa	1.081 mPa·s
298.15 K, 90700 kPa	1.081 mPa·s
298.15 K, 100600 kPa	1.081 mPa·s
298.15 K, 120700 kPa	1.086 mPa·s
298.15 K, 125600 kPa	1.087 mPa·s
298.15 K, 130600 kPa	1.089 mPa·s
298.15 K, 150600 kPa	1.094 mPa·s and 1.095 mPa·s
298.15 K, 170500 kPa	1.104 mPa·s
298.15 K, 175600 kPa	1.105 mPa·s
298.15 K, 180600 kPa	1.108 mPa·s
298.15 K, 200600 kPa	1.117 mPa·s
298.15 K, 210200 kPa	1.122 mPa·s
298.15 K, 210600 kPa	1.123 mPa·s
298.15 K, 225500 kPa	1.131 mPa·s
298.15 K, 240600 kPa	1.141 mPa·s
298.15 K, 249700 kPa	1.146 mPa·s
298.15 K, 270500 kPa	1.16 mPa·s
298.15 K, 299600 kPa	1.181 mPa·s
298.15 K, 300300 kPa	1.182 mPa·s
298.15 K, 330100 kPa	1.205 mPa·s
298.15 K, 331900 kPa	1.205 mPa·s
298.15 K, 349000 kPa	1.221 mPa·s
298.15 K, 359800 kPa	1.23 mPa·s
298.15 K, 389400 kPa	1.257 mPa·s
